Here are results for 1 compound from patent publication US20140158116A1, “INHIBITING TRPA1 FOR THE TREATMENT OF ASTHMA” (Cubist Pharmaceuticals, Inc., priority 2012, published 2014).

Molecules are shown by their SMILES.

One data set addresses T1, hTRPV3 (Homo sapiens, UniProt Q8NET8).
T1 sequence (Q8NET8 1-790): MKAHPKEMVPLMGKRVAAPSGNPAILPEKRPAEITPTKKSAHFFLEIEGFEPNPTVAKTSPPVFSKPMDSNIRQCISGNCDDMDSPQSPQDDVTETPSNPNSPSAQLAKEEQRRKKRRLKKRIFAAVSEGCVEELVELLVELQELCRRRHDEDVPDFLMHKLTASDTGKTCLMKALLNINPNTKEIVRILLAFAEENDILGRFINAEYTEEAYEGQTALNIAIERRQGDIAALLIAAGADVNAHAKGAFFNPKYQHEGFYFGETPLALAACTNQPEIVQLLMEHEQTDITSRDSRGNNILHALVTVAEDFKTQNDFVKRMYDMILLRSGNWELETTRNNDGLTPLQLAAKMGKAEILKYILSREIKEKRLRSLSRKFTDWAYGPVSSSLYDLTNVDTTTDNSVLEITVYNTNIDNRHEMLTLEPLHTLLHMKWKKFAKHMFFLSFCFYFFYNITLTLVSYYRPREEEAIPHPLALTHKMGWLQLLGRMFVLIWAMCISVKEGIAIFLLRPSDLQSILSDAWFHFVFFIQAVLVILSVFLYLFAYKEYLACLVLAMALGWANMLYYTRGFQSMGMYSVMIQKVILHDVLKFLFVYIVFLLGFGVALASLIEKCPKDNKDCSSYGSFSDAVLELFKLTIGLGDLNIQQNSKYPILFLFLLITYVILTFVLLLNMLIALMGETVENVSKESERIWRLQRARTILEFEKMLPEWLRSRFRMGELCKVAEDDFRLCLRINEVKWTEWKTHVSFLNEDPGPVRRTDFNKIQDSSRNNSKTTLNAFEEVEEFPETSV
Kind of data set: Patch clamp selectivity, hTRPV3. Type of data set: cell-based. As to the method:
Data for TRPA1 inhibition and the selectivity of TRPA1 inhibition was obtained by this method for the compound of Formula (Ia) and included in Table 1 and Table 2. All currents were recorded in whole-cell configuration using EPC-9 and EPC-10 amplifiers and Patchmaster software (HEKA). […] The standard pipette solution consisted of 140 mM CsAsp, 10 mM EGTA, 10 mM HEPES, 2.27 mM MgCl2, 1.91 mM CaCl2, 4 mM MgATP, and 0.1-0.3 mM Na2GTP, with pH adjusted to 7.2 with CsOH. In addition, a solution containing 145 mM CsCl, 10 mM HEPES, 10 mM EGTA and 1 mM MgCl2 (pH 7.2 adjusted with CsOH) can be used. The standard bath solution contained 150 mM NaCl, 10 mM HEPES, 10 mM glucose, 4.5 mM KCl, 1 mM EGTA, 3 mM MgCl2, with pH adjusted to 7.4 with NaOH. In some instances, 2 mM CaCl2 was added in place of EGTA and the concentration of MgCl2 was reduced to 1 mM.
Data were collected either by continuous recordings at −60 mV or by applying voltage ramps from a holding potential of 0 mV every 4 s. […] Inward and outward currents were analyzed from the ramps at −80 and 80 mV, respectively. […]
Solutions were switched using a gravity-fed continuous focal perfusion system. […] Temperatures were confirmed using a thermistor (Warner Instruments, TA-29), with temperatures at the recorded cell estimated to be within +/−2° C. of those reported. […]

In a further data set the target is hTRPA1 (Homo sapiens, UniProt O75762). Kind of data set: hTrpA1 IC50 measured in 1% RSA (rat serum albumin). In kind it is cell-based.
hTRPA1, sequence (O75762 whole entry): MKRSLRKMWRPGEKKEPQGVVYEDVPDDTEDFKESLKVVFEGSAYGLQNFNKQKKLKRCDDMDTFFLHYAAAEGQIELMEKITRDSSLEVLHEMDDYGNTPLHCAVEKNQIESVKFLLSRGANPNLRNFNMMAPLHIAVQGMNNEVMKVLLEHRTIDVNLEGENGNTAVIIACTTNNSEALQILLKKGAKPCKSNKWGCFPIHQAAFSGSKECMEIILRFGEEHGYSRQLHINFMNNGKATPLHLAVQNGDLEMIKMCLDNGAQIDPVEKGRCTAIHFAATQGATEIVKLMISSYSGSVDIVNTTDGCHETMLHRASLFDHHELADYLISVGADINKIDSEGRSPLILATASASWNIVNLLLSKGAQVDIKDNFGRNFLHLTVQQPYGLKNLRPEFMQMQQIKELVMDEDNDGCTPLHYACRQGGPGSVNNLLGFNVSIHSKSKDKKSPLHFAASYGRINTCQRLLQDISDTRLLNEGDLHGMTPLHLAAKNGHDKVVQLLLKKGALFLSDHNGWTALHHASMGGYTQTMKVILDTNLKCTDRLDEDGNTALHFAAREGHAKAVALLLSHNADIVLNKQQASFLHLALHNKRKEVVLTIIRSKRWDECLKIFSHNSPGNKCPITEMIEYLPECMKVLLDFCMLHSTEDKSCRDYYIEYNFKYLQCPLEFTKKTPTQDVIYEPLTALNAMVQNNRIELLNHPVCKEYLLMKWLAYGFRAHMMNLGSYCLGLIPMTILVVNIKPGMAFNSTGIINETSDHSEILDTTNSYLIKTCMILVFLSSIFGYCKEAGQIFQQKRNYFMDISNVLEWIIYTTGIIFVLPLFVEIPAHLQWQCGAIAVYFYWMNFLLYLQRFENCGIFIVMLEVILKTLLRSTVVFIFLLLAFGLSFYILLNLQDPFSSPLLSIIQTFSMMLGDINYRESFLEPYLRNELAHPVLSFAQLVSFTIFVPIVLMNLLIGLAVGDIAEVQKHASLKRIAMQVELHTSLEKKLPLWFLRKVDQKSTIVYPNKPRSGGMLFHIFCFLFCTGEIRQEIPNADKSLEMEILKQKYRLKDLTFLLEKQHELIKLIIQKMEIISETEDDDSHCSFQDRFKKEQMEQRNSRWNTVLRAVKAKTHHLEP
Data set [1] deals with serum biomarkers of hepatotoxicity (ALT, AST, ALP, GGT). Kind of data set: Hepatotoxicity serum biomarker study in dogs, oral dose. In kind it is in vivo, dog. The following applies: dogs; 50 mg/kg PO. The method, then:
The compound of Formula (Ia) was orally dosed to […] at dose levels of 5, 15 or 50 mg/kg using 30% Sulfobutylether β-cyclodextrin as the vehicle for assessment of safety as measured via serum chemistry biomarkers of hepatotoxicity or bile duct injury FIG. 5A, showing measurements of alanine aminotranferease [ALT], aspartate aminotranferease [AST], alkaline phosphatase [ALP] and gamma-glutamyl transferase [GGT] in the dogs at each dose level (each bar represents a measurement from 1 dog in the study). […] For example, the ALT levels were elevated up to about 60-fold in male dogs and up to about 130-fold in female beagle dogs following a single PO dose of 50 mg/kg.

Data set [2] in a line: Single ascending dose Phase 1A study. Type of data set: in vivo, human. The following applies: healthy male volunteers; 6 ascending single doses. An excerpt:
A randomized, double-blind, placebo-controlled, cross-over, single dose, safety, tolerability and pharmacokinetic study of 6 ascending doses of the compound of Formula (Ia) was undertaken in two cohorts of healthy male volunteers. A total of eighteen eligible healthy mail volunteers were recruited utilizing an alternating panel design. The first cohort of nine subjects (Cohort 1) was sequentially enrolled into 3 of 6 dosing periods (Dose Levels 1, 3, and 5). The remaining cohort of nine subjects (Cohort 2) was enrolled in the other 3 dosing periods (Dose Levels 2, 4, and 6). Within each dosing period, subjects were randomly assigned 2:1 to the compound of Formula (I) (n=6) or placebo (n=3). Each subject received one dose of placebo and two different doses of the compound of Formula (I) over the course of their participation in all three dosing periods. Subjects were equally randomized to one of 3 possible sequences, namely 1) placebo, active, active, 2) active, placebo, active, and 3) active, active, placebo.

Broadly, the IC50 is the concentration that gives 50% inhibition. On to `C[C@H]1CCCN1c1ncc(-c2cccc(NC(=O)Cn3cnc4c3c(=O)n(C)c(=O)n4C)n2)cn1` [Formula (Ia)], for which the “Fold Selectivity Compared to TRPA1” value at hTRPV3 is recorded as above 300 fold. Also, the IC50 was above 32 µM against hTRPV3 (30 micromolar 2-APB, Inward (−80 mV)) and 5.3 µM against hTRPA1. For the same compound, the “effect on serum biomarkers of hepatotoxicity” value in data set [1] is “did not elevate serum biomarkers of hepatotoxicity or acute phase response”. For the same compound, in data set [2], the safety signals entry is recorded as “no safety signals seen that were attributable to the compound of Formula (Ia)”.
